Measured values from US10682352B2, “Compound having mutant IDH inhibitory activity, preparation method and use thereof” (SHANGHAI HAIHE PHARMACEUTICAL CO., LTD., priority 2016, dated 2020).
pIC50: −log10 of the molar value.

Molecular target: IDH1 R132H (Homo sapiens (Human), UniProt O75874, R132H)
Test: Effect on the enzyme activity of IDH1 at the molecular level (NADPH consumption, diaphorase/resazurin)
Assay type: biochemical
Conditions: α-KG 1 mM, NADPH 4 μM, 60 min room temperature
Method: The enzyme used in the experiment was purchased from cayman Co.
The substrates α-KG, NADPH and Diaphorase were purchased from Sigma; Resazurin was purchased from J&K; and the remaining reagents were purchased from Sinopharm Chemical Reagent Co., Ltd.
Compound preparation: Compound 12000 g was centrifuged for 5 min, DMSO was added to prepare 10 mM, which was vortexed, then ultrasonic treatment for 10 minutes, and stored at −40° C. The stock solution was diluted firstly with DMSO to a 10 μM solution when tested and then gradient-diluted for 3 times to a different test concentration.
Test method: The enzyme activity of IDH1 to convert α-KG to 2HG was measured by the consumption of NADPH. After the enzymatic reaction was completed, a catalytic excess of diaphorase and reazurin were added, and the resulting fluorescent signal could reflect the amount of remaining NADPH. […] IC50 values were calculated using GraphPad Prism software.

Chain of IDH1 R132H (O75874 whole entry R132H): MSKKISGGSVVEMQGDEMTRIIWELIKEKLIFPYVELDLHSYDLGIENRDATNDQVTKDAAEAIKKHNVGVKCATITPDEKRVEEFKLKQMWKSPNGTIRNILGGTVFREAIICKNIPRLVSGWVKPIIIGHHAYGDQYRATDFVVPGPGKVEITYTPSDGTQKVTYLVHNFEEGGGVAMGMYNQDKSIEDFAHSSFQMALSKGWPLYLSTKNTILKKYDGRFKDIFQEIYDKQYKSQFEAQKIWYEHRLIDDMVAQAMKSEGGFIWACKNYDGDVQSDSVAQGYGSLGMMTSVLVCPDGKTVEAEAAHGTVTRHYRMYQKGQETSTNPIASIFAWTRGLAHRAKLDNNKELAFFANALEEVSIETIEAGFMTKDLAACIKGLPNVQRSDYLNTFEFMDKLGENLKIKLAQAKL

[2H]C1([2H])[C@H](C(C)C)N(c2ccnc(N[C@@H](C)c3ccc(-c4cccc(Cl)c4)cn3)n2)C(=O)N1C [Compound 2, (S)-3-(2-(((S)-1-(5-(3-chlorophenyl)pyridin-2-yl)ethyl)amino)pyrimidin-4-yl)-4-isopropyl-1-methyl-imidazolidine-2-one-5,5-dideutero] showed a pIC50 of 6.00 to 7.00.

Molecule CC(C)[C@H]1CNC(=O)N1c1ccnc(NC2(c3cn(-c4ccc(Cl)cc4)cn3)CC2)n1 [Compound 8, (S)-1-(2-((1-(1-(4-chlorophenyl)-1H-imidazol-4-yl)cyclopropyl)amino)pyrimidin-4-yl)-5-isopropyl imidazolidine-2-one] has a pIC50 of 6.00 to 7.00.

Molecule CC(Nc1nccc(N2C(=O)NC[C@@H]2C(C)C)n1)c1ccc(Oc2ccccc2)cc1 (stereo partly drawn) [Compound 9, (5S)-5-isopropyl-1-(2-((1-(4-phenoxyphenyl)ethyl)amino)pyrimidin-4-yl)imidazolidine-2-one] has a pIC50 of 6.00 to 7.00.

C[C@H](Nc1nccc(N2C(=O)NCC23CCCC3)n1)c1cn(-c2ccc(Cl)cc2)cn1 [Compound 11, (S)-1-(2-((1-(1-(4-chlorophenyl)-1H-imidazol-4-yl)ethyl)amino)pyrimidin-4-yl)-1,3-diazaspiro[4.4]-2-one] showed a pIC50 of 6.00 to 7.00.

In the case of C[C@H](Nc1nccc(N2C(=O)NCC2(C)C)n1)c1cn(-c2ccc(Cl)cc2)cn1 [Compound 12, (S)-1-(2-((1-(1-(4-chlorophenyl)-1H-imidazol-4-yl)ethyl)amino)pyrimidin-4-y 1)-5,5-dimethyl imidazolidine-2-one], the pIC50 was 6.00 to 7.00.

O=C1NC[C@H](c2ccccc2)N1c1ccnc(NC2(c3cn(-c4ccc(Cl)cc4)cn3)CC2)n1 [Compound 13, (S)-1-(2-((1-(1-(4-chlorophenyl)-1H-imidazol-4-yl)cyclopropyl)amino)pyrimidin-4-yl)-5-phenylimidazolidine-2-one] gave a pIC50 of 6.00 to 7.00.

With C[C@H](Nc1nccc(N2C(=O)NC[C@@H]2C2CC2)n1)c1cn(-c2ccc(Cl)cc2)cn1 [Compound 14] the pIC50 was 6.00 to 7.00.

CC(C)[C@H]1CNC(=O)N1c1ccnc(NC2(c3ccc(-c4ccc(Cl)cc4)cc3)CC2)n1 [Compound 16, (S)-1-(2-((1-(4′-chloro-[1,1′-biphenyl]-4-yl)cyclopropyl)amino)pyrimidin-4-yl)-5-isopropyl imidazolidine-2-one] was tested, and the pIC50 was 6.00 to 7.00.

CC(C)[C@H]1CN(C)C(=O)N1c1ccnc(NC2(c3cn(-c4ccc(Cl)cc4)cn3)CC2)n1 [Compound 19, (S)-3-(2-((1-(1-(4-chlorophenyl)-1H-imidazol-4-yl)cyclopropyl)amino)pyrimidin-4-yl)-4-isopropyl-1-methylimidazolidine-2-one] showed a pIC50 of 6.00 to 7.00.

Cc1ccc(-n2cnc(C3(Nc4nccc(N5C(=O)NC[C@@H]5C(C)C)n4)CC3)c2)cn1 [Compound 29, (S)-5-isopropyl-1-(2-((1-(1-(6-methylpyridin-3-yl)-1H-imidazol-4-yl)cyclopropyl)amino)pyrimidine-4-yl)-2-one] showed a pIC50 of 6.00 to 7.00.

In the case of CC(C)[C@H]1CN(C)C(=O)N1c1ccnc(NC2(c3cn(C4CCC(F)(F)CC4)cn3)CC2)n1 [Compound 36, (S)-3-(2-((1-(1-(4,4-difluorocyclohexyl)-1H-imidazol-4-yl)cyclopropyl)amino)pyrimidin-4-yl)-4-isopropyl-1-methylimidazolidine-2-one], the pIC50 was 6.00 to 7.00.

In the case of CC(C)[C@H]1CN(C)C(=O)N1c1ccnc(NC2(c3cn(-c4ccc(C5CC5)cc4)cn3)CC2)n1 [Compound 39, (S)-3-(2-((1-(1-(4-cyclopropylphenyl)-1H-imidazol-4-yl)cyclopropyl)amino)pyrimidin-4-yl)-4-isopropyl-1-methylimidazolidine-2-one], the pIC50 was 6.00 to 7.00.

With CC(C)[C@H]1CN(C)C(=O)N1c1ccnc(NC2(c3cn(CC4CCCC4)cn3)CC2)n1 [Compound 40, (S)-3-(2-((1-(1-(cyclopentylmethyl)-1H-imidazol-4-yl)cyclopropyl)amino)pyrimidin-4-yl)-4-isopropyl-1-methylimidazolidine-2-one] the pIC50 was 6.00 to 7.00.

CCN1C[C@H](C(C)C)N(c2ccnc(NC3(c4cn(-c5cccc(Cl)c5)cn4)CC3)n2)C1=O [Compound 41] gave a pIC50 of 6.00 to 7.00.

Work on CC(C)[C@H]1CN(C)C(=O)N1c1ccnc(NC2(c3cn(-c4cc(Cl)cc(C#N)c4)cn3)CC2)n1 [Compound 45, (S)-3-chloro-5-(4-(1-((4-(5-isopropyl-3-methylimidazolidine-2-one-1-yl)pyrimidin-2-yl)amine)cyclopropyl)-1H-imidazolidine-1-yl) phenyl cyanide] yielded a pIC50 greater than 7.00.

Work on CC(C)[C@H]1CN(C)C(=O)N1c1ccnc(NC2(c3cn(-c4cc(Cl)cc(C5CC5)c4)cn3)CC2)n1 [Compound 48] yielded a pIC50 greater than 7.00.

In the case of CC(C)[C@H]1CN(C)C(=O)N1c1ccnc(NC2(c3cn(-c4ccccc4Cl)cn3)CC2)n1 [Compound 51, (S)-3-(2-((1-(1-(2-chlorophenyl)-1H-imidazol-4-yl)cyclopropyl)amino)pyrimidin-4-yl)-4-isopropyl-1-methylimidazolidine-2-one], the pIC50 was 6.00 to 7.00.

CC(C)[C@H]1CN(C)C(=O)N1c1ccnc(NC2(c3cn(-c4cc(F)cc(C5CC5)c4)cn3)CC2)n1 [Compound 53] showed a pIC50 greater than 7.00.

CC(C)c1cccc(-n2cnc([C@H](C)Nc3nccc(N4C(=O)N(C)C[C@@H]4C(C)C)n3)c2)c1 [Compound 54] showed a pIC50 of 6.00 to 7.00.

Work on CC(C)[C@H]1CN(C)C(=O)N1c1ccnc(N[C@@H](C)c2cn(C3CCC(C)(C)CC3)cn2)n1 [Compound 56, (S)-3-(2-(((S)-1-(1-(4,4-dimethylcyclohexyl)-1H-imidazol-4-yl)ethyl)amino)pyrimidin-4-yl)-4-isopropyl-1-methylimidazolidine-2-one] yielded a pIC50 of 6.00 to 7.00.

With CC(C)[C@H]1CN(C)C(=O)N1c1ccnc(N[C@@H](C)c2cn(-c3cccc(C(F)(F)F)c3)cn2)n1 [Compound 59] the pIC50 was 6.00 to 7.00.

CC(C)[C@H]1CN(C)C(=O)N1c1ccnc(N[C@@H](C)c2cn(-c3cc(Cl)cc(Cl)c3)cn2)n1 [Compound 60, (S)-3-(2-(((S)-1-(1-(3,5-dichlorophenyl)-1hydro-imidazol-4-yl)ethyl)amino)pyrimidin-4-yl)-4-isopropyl-1-methylimidazolidine-2-one] showed a pIC50 of 6.00 to 7.00.

With CC(C)[C@H]1CN(C)C(=O)N1c1ccnc(NC2(c3ncn(-c4cccc(C5CC5)c4)n3)CC2)n1 [Compound 64] the pIC50 was 6.00 to 7.00.

CC(C)CCn1cnc([C@H](C)Nc2nccc(N3C(=O)N(C)C[C@@H]3C(C)C)n2)c1 [Compound 66, (S)-3-(2-(((S)-1-(1-isopentyl-1H-imidazol-4-yl)yl)amino)pyrimidin-4-yl)-4-isopropyl-1-methylimidazolidine-2-one] was tested, and the pIC50 was 6.00 to 7.00.

Molecule CC(C)[C@H]1CN(C)C(=O)N1c1ccnc(NC2(c3cn(-c4cccc(C5CC5)c4)c(Br)n3)CC2)n1 [Compound 67] has a pIC50 of 6.00 to 7.00.

CC(C)[C@H]1CN(C)C(=O)N1c1ccnc(NC2(c3ncn(-c4cccc(C5CC5)c4)c3C#N)CC2)n1 [Compound 69, (S)-1-(3-cyclopropylphenyl)-4-(1-((4-(5-isopropyl-3-methyl-2-oxoimidazolidine-1-yl)pyrimidine-2-yl)amino)cyclopropyl)-1H-imidazole-5-carbonitrile] showed a pIC50 of 6.00 to 7.00.

CC(C)[C@H]1CN(C)C(=O)N1c1ccnc(N[C@@H](C)c2ncn(-c3ccc(Cl)cc3)n2)n1 [Compound 70] gave a pIC50 of 6.00 to 7.00.

For CC(C)[C@H]1CN(C)C(=O)N1c1ccnc(NC2(c3cn(-c4cccc(C5CC5)c4)cn3)CCC2)n1 [Compound 71, (S)-3-(2-((1-(1-(3-cyclopropylphenyl)-1H-imidazol-4-yl)cyclobutyl)amino)pyrimidin-4-yl)-4-isopropyl-1-methylimidazolidine-2-one], the pIC50 was 6.00 to 7.00.

CC(C)[C@H]1CN(C)C(=O)N1c1ccnc(NC(C)(C)c2cn(-c3ccc(Cl)cc3)cn2)n1 [Compound 72, (S)-3-(2-((2-(1-(4-chlorophenyl)-1H-imidazol-4-yl)prop-2-yl)amino)pyrimidin-4-yl)-4-isopropyl-1-methylimidazolidine-2-one] was tested, and the pIC50 was 6.00 to 7.00.

In the case of CC(C)[C@H]1CN(C2CC2)C(=O)N1c1ccnc(N[C@@H](C)c2cn(-c3ccc(Cl)cc3)cn2)n1 [Compound 73, (S)-3-(2-(((S)-1-(1-(4-chlorophenyl)-1H-imidazol-4-yl)ethyl)amino)pyrimidin-4-yl)-4-isopropyl-1-cyclopropylimidazolidine-2-one], the pIC50 was 6.00 to 7.00.

CCN1C[C@H](C(C)C)N(c2ccnc(N[C@@H](C)c3cn(-c4ccc(Cl)cc4)cn3)n2)C1=O [Compound 74, (S)-3-(2-(((S)-1-(1-(4-chlorophenyl) 1H-imidazol-4-yl)ethyl)amino)pyrimidin-4-yl)-1-ethyl-4-isopropylimidazolidine-2-one] gave a pIC50 of 6.00 to 7.00.

With CC(C)[C@H]1CN(C)C(=O)N1c1ccnc(N[C@@H](C)c2cn(C3CCC(F)(F)CC3)cn2)n1 [Compound 75, (S)-3-(2-(((S)-1-(1-(4,4-difluorocyclohexyl)-1H-imidazol-4-yl)ethyl)amino)pyrimidin-4-yl)-4-isopropyl-1-methylimidazolidine-2-one] the pIC50 was 6.00 to 7.00.

Cc1cc(N2C(=O)N(C)C[C@@H]2C2CC2)nc(N[C@@H](C)c2cn(-c3ccc(Cl)cc3)cn2)n1 [Compound 79, (S)-3-(2-(((S)-1-(1-(4-chlorophenyl)-1H-imidazol-4-yl)ethyl)amino)-6-methylpyrimidin-4-yl) cyclopropyl-1-methylimidazolidine-2-one] gave a pIC50 of 6.00 to 7.00.

C[C@H](Nc1nccc(N2C(=O)N(C)C[C@@H]2[C@@H](C)O)n1)c1cn(-c2ccc(Cl)cc2)cn1 [Compound 81] was tested, and the pIC50 was 6.00 to 7.00.

For CC(C)[C@@H]1N(c2ccnc(N[C@@H](C)c3cn(-c4ccc(Cl)cc4)cn3)n2)C(=O)NC12CC2 [Compound 99, (S)-6-(2-(((S)-1-(1-(4-chlorophenyl)-1H-imidazol-4-yl)ethyl)amino)pyrimidin-4-yl)-7-isopropyl-4,6-diazaspiro[2.4] hept-5-one], the pIC50 was 6.00 to 7.00.
